Laboratory results as given in patent publication US20260001871A1, “TRIAZOLE DERIVATIVES AS MODULATORS OF MAS-RELATED G-PROTEIN RECEPTOR D” (ESCIENT PHARMACEUTICALS, INC., priority 2022, published 2026).

Molecular target: human MRGPRD (Homo sapiens, UniProt Q8TDS7)
Assay: MRGPRD antagonist activity, IP-One HTRF assay in CHO cells stably expressing human MRGPRD (versus 100 μM β-Alanine agonist)
Format: cell-based
Procedure, shortened: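 IP-1 HTRF read-out, with IC50 from HTRF ratio curves and percent antagonism relative to maximal efficacy (mean, SEM). Antagonists and agonist were co-incubated 1 h at 37 °C plus 1 h at room temperature on overnight-plated MRGPRD-CHO cells in LiCl-containing Tris buffer, pH 8.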

Sequence of human MRGPRD (Q8TDS7 whole entry): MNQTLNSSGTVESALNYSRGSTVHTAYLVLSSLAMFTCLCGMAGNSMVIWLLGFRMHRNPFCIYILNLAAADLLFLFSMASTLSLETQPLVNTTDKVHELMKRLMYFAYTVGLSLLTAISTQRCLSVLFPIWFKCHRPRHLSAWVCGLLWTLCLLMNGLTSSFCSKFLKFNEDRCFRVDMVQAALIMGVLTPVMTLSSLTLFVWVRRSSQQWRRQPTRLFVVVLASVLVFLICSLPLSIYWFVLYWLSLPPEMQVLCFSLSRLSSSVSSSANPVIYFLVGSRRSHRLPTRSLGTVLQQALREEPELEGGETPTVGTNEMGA

COc1cc(-c2ccccc2)ccc1-n1nnc(C(=O)Nc2ccnc(C)c2)c1C1CC1 [Compound 7-272]
IC50: 500 to 1000 nM

Cc1c(-c2ccc(-n3nnc(C(=O)Nc4ccncc4)c3C3CC3)cc2)cnn1C [Compound 7-50]
IC50: 100 to 500 nM

Cc1cnn(C)c1-c1ccc(-n2nnc(C(=O)Nc3ccncc3)c2C2CC2)cc1 [Compound 7-73]
IC50: 100 to 500 nM

Cc1cc(NC(=O)c2nnn(-c3ccc(-c4ccc(C#N)cc4)cn3)c2C2CC2)ccn1 [Compound 11-2]
IC50: 100 to 500 nM

CCn1cc(CNC(=O)c2nnn(-c3ccc(-c4ccc(C#N)cc4)cc3)c2C(C)C)cn1 [Compound 17-17]
IC50: 100 to 500 nM

Cc1nn(C)c(F)c1-c1ccc(-n2nnc(C(=O)Nc3ccncc3)c2C2CC2)cc1 [Compound 7-16]
IC50: < 100 nM

C#Cc1cccc(-c2ccc(-n3nnc(C(=O)Nc4ccncc4)c3C3CC3)cc2)c1 [Compound 7-136]
IC50: 500 to 1000 nM

CCn1cc(CNC(=O)c2nnn(C3CC=C(c4ccc(C#N)cc4)CC3)c2C2CC2)cn1 (stereo not drawn) [Compound 12-8]
IC50: 1000 to 3000 nM

CCc1ccccc1-n1nnc(C(=O)Nc2ccncc2)c1C1CC1 [Compound 3-3]
IC50: 1000 to 3000 nM

Cc1ccc(-n2nnc(C(=O)Nc3ccnc(C)c3)c2C2CC2)c(Cl)c1 [Compound 4-2, 1-(2-chloro-4-methylphenyl)-5-cyclopropyl-N-(2-methylpyridin-4-yl)-1H-1,2,3-triazole-4-carboxamide]
IC50: 100 to 500 nM

CCc1cc(NC(=O)c2nnn(-c3ccc(-c4c(C)nn(CC)c4C)cc3)c2C2CC2)ccn1 [Compound 9-16]
IC50: 100 to 500 nM

CCn1cc(CNC(=O)c2nnn(-c3ccc(-c4ccc(C#N)cc4)cc3F)c2C2CC2)cn1 [Compound 22-3]
IC50: 1000 to 3000 nM

Cn1cc(C2(NC(=O)c3nnn(C4CC=C(c5ccc(C#N)cc5)CC4)c3C3CC3)CC2)cn1 (stereo not drawn) [Compound 12-6]
IC50: 1000 to 3000 nM

CN(C)C(=O)c1ccccc1-c1ccc(-n2nnc(C(=O)Nc3ccncc3)c2C2CC2)cc1 [Compound 7-2]
IC50: > 3000 nM

CC(C)C(=O)c1cccc(-c2ccc(-n3nnc(C(=O)Nc4ccncc4)c3C3CC3)cc2)c1 [Compound 7-67]
IC50: 100 to 500 nM

CC(O)c1ccc(-c2ccc(-n3nnc(C(=O)Nc4ccncc4)c3C3CC3)cc2)cc1 (stereo not drawn) [Compound 7-83]
IC50: 100 to 500 nM

Cc1cc(-c2ccc(C#N)cc2)ccc1-n1nnc(C(=O)Nc2ccncc2)c1C1CC1 [Compound 7-230]
IC50: 100 to 500 nM

Cc1cc(NC(=O)c2nnn(-c3ccc(-c4ccc(C#N)cc4)cc3OC(F)(F)F)c2C2CC2)ccn1 [Compound 7-53]
IC50: 100 to 500 nM

CC(NC(=O)c1nnn(-c2ccc(-c3ccccc3)cc2)c1C1CC1)c1cnn(C)c1 (stereo not drawn) [Compound 14-75]
IC50: > 3000 nM

CCn1cc(CNC(=O)c2nnn(-c3ccc(-c4cccc(C#N)c4)cc3)c2C2CC2)cn1 [Compound 15-15]
IC50: 1000 to 3000 nM

CCc1ccc(C2(NC(=O)c3nnn(-c4ccc(-c5ccc(C#N)c(F)c5)cc4)c3C3CC3)CC2)cn1 [Compound 9-13]
IC50: 100 to 500 nM

CCn1cc(C2(NC(=O)c3nnn(-c4ccc(-c5ccccc5)cc4)c3C3CC3)CC2)cn1 [Compound 18-12]
IC50: 1000 to 3000 nM

CC(C)c1c(C(=O)NC2(c3cccnc3)CC2)nnn1-c1ccc(-c2ccc(C#N)c(F)c2)cc1 [Compound 18-26]
IC50: 1000 to 3000 nM

COc1cc(C#N)ccc1-c1ccc(-n2nnc(C(=O)Nc3ccncc3)c2C2CC2)cc1 [Compound 7-24]
IC50: 100 to 500 nM

O=C(Nc1ccnc(C(F)F)c1)c1nnn(-c2ccc(-c3ccccc3)cc2)c1C1CC1 [Compound 14-22]
IC50: 500 to 1000 nM

O=C(NCc1cscn1)c1nnn(-c2ccc(-c3ccccc3)cc2)c1C1CC1 [Compound 14-11]
IC50: > 3000 nM

O=C(Nc1ccncc1)c1nnn(-c2ccc(-c3ccc(OC(F)(F)F)cc3)cc2)c1C1CC1 [Compound 7-195]
IC50: 1000 to 3000 nM

O=C(Nc1ccncc1)c1nnn(-c2ccc(-c3cnn(C4CCC4)c3)cc2)c1C1CC1 [Compound 7-62]
IC50: 100 to 500 nM

Cn1ncc(C#N)c1-c1ccc(-n2nnc(C(=O)Nc3ccncc3)c2C2CC2)cc1 [Compound 7-188]
IC50: 1000 to 3000 nM

O=C(Nc1ccncc1)c1nnn(-c2ccc(-c3cnn(C4CC4)c3)cc2)c1C1CC1 [Compound 7-88]
IC50: 100 to 500 nM

Cc1c(-c2ccc(-n3nnc(C(=O)Nc4ccncc4)c3C3CC3)cc2)c(C(F)(F)F)nn1C [Compound 7-47]
IC50: 100 to 500 nM

Cc1[nH]ncc1CNC(=O)c1nnn(-c2ccc(-c3ccccc3)cc2)c1C1CC1 [Compound 14-5]
IC50: > 3000 nM

Cc1noc(C)c1-c1ccc(-n2nnc(C(=O)Nc3ccncc3)c2C2CC2)cc1 [Compound 7-40]
IC50: 100 to 500 nM

O=C(Nc1ccncc1)c1nnn(-c2ccc(-c3ccccc3)cc2Cl)c1C1CC1 [Compound 4-13]
IC50: 500 to 1000 nM

Cc1n[nH]c2cccc(NC(=O)c3nnn(-c4ccc(-c5ccccc5)cc4)c3C3CC3)c12 [Compound 14-61]
IC50: 1000 to 3000 nM

Cc1ccc(-n2nnc(C(=O)Nc3ccncc3)c2C2CC2)cc1-c1cnn(C(C)C)c1 [Compound 7-260]
IC50: 500 to 1000 nM

O=C(Nc1ccncc1)c1nnn(-c2cccc(-c3cccc(Cl)c3)c2)c1C1CC1 [Compound 7-324]
IC50: 1000 to 3000 nM

CC(=O)c1ccccc1-c1cccc(-n2nnc(C(=O)Nc3ccncc3)c2C2CC2)c1 [Compound 7-8]
IC50: > 3000 nM

Cc1cncc(CNC(=O)c2nnn(-c3ccc(-c4c(C)nn(-c5ccccc5)c4C)cc3)c2C2CC2)c1 [Compound 9-12]
IC50: 100 to 500 nM

CCn1cc(CNC(=O)c2nnn(-c3ccc(-c4c(C)nn(CC)c4C)cc3)c2C2CC2)cn1 [Compound 9-11]
IC50: 100 to 500 nM

N#Cc1ccc(C2=CCC(n3nnc(C(=O)NC4(c5cccnc5)CC4)c3C3CC3)CC2)cc1 (stereo not drawn) [Compound 12-9]
IC50: 1000 to 3000 nM

CCc1cc(NC(=O)c2nnn(-c3ccc(-c4c(C)nn(C)c4C)cc3)c2C2CC2)ccn1 [Compound 9-2]
IC50: < 100 nM

CN(C)S(=O)(=O)n1ccc(-c2ccc(-n3nnc(C(=O)Nc4ccncc4)c3C3CC3)cc2)n1 [Compound 7-43]
IC50: 100 to 500 nM

Cn1ncc2c1CCCC2NC(=O)c1nnn(-c2ccc(-c3ccccc3)cc2)c1C1CC1 (stereo not drawn) [Compound 14-38]
IC50: 1000 to 3000 nM

CC(=O)c1ccc(-c2cccc(-n3nnc(C(=O)Nc4ccncc4)c3C3CC3)c2)c(F)c1C [Compound 7-252]
IC50: 500 to 1000 nM

N#CCc1ccc(-c2cccc(-n3nnc(C(=O)NC4(c5cccnc5)CC4)c3C3CC3)c2)c(F)c1 [Compound 7-330]
IC50: > 3000 nM

Cc1cc(NC(=O)c2nnn(-c3ccc(-c4ccccc4)cn3)c2C2CC2)ccn1 [Compound 7-279]
IC50: 500 to 1000 nM

O=C(NC1CCSCC1)c1nnn(-c2ccc(-c3ccccc3)cc2)c1C1CC1 [Compound 14-30]
IC50: 1000 to 3000 nM

N#Cc1ccc(-c2ccc(-n3nnc(C(=O)Nc4ccncc4)c3C3CC3)cc2)cc1 [Compound 7-39]
IC50: 100 to 500 nM

Cc1nn2cccnc2c1-c1ccc(-n2nnc(C(=O)Nc3ccncc3)c2C2CC2)cc1 [Compound 7-31]
IC50: 100 to 500 nM

Cc1ccc(CNC(=O)c2nnn(-c3ccc(-c4c(C)nn5ccccc45)cc3)c2C2CC2)cn1 [Compound 17-1]
IC50: 100 to 500 nM

O=C(Nc1ccncc1)c1nnn(-c2ccc(-c3ccc(C4CCCC4)cc3)cc2)c1C1CC1 [Compound 7-202]
IC50: 1000 to 3000 nM

CC(=O)c1ccc(-c2ccc(-n3nnc(C(=O)Nc4ccncc4)c3C3CC3)cc2)cc1F [Compound 7-104]
IC50: 100 to 500 nM

Cc1ccc(-n2nnc(C(=O)Nc3ccncc3)c2C2CC2)cc1O [Compound 4-4]
IC50: 1000 to 3000 nM

COc1ccc(-c2cccc(-n3nnc(C(=O)Nc4ccncc4)c3C3CC3)c2)c(OC)c1 [Compound 7-286]
IC50: 1000 to 3000 nM

CC(=O)c1cccc(-c2cc(-n3nnc(C(=O)Nc4ccncc4)c3C3CC3)ccc2-c2c(C)nn(C)c2C)c1 [Compound 25-1, 1-(3′-acetyl-6-(1,3,5-trimethyl-1H-pyrazol-4-yl)-[1,1′-biphenyl]-3-yl)-5-cyclopropyl-N-(pyridin-4-yl)-1H-1,2,3-triazole-4-carboxamide]
IC50: 1000 to 3000 nM

CC(=O)c1cccc(-c2cccc(-n3nnc(C(=O)Nc4ccncc4)c3C3CC3)c2)c1 [Compound 7-237]
IC50: 100 to 500 nM

COCc1ccc(-c2ccc(-n3nnc(C(=O)Nc4ccncc4)c3C3CC3)cc2)cc1 [Compound 7-46]
IC50: 100 to 500 nM

O=C(Nc1ccncc1)c1nnn(-c2ccc(-c3ccc4[nH]ccc4c3)cc2)c1C1CC1 [Compound 7-196]
IC50: 1000 to 3000 nM

Cc1nn(C)c(C)c1-c1ccc(-n2nnc(C(=O)NC3(c4cccnc4)CC3)c2C(C)C)cc1 [Compound 18-23]
IC50: 100 to 500 nM

O=C(Nc1ccncc1)c1nnn(-c2ccc(-c3cccc(C(F)F)c3)cc2)c1C1CC1 [Compound 7-122]
IC50: 500 to 1000 nM

Cn1ncc(NC(=O)c2nnn(-c3ccc(-c4ccccc4)cc3)c2C2CC2)c1Cl [Compound 14-10]
IC50: > 3000 nM

O=C(Nc1ccncc1)c1nnn(-c2ccc(-c3cccc(OC(F)(F)F)c3)cc2)c1C1CC1 [Compound 7-162]
IC50: 1000 to 3000 nM

CCn1cc(C2(NC(=O)c3nnn(-c4ccc(-c5ccc(C#N)nc5)cc4)c3C(C)C)CC2)cn1 [Compound 18-27]
IC50: 1000 to 3000 nM

CCc1ccc(C2(NC(=O)c3nnn(-c4ccc(-c5c(C)nn(CC)c5C)cc4)c3C3CC3)CC2)cn1 [Compound 9-31]
IC50: 1000 to 3000 nM

CC(C)c1c(C(=O)NC2(c3cccnc3)CC2)nnn1-c1ccc(-c2ccc(C#N)nc2)cc1 [Compound 18-29]
IC50: > 3000 nM

COc1ccc(C2(NC(=O)c3nnn(-c4ccc(-c5c(C)nn(C)c5C)cc4)c3C(C)C)CC2)cn1 [Compound 18-25]
IC50: 500 to 1000 nM

Cn1cc(NC(=O)c2nnn(-c3ccc(-c4ccccc4)cc3)c2C2CC2)cn1 [Compound 14-72]
IC50: > 3000 nM

Cc1cn(C)nc1-c1ccc(-n2nnc(C(=O)Nc3ccncc3)c2C2CC2)cc1 [Compound 7-110]
IC50: 100 to 500 nM

CC(NC(=O)c1nnn(-c2ccc(-c3ccccc3)cc2)c1C1CC1)c1ccc(S(C)(=O)=O)cc1 (stereo not drawn) [Compound 14-47]
IC50: 1000 to 3000 nM

COc1ccc(-c2ccc(-n3nnc(C(=O)Nc4ccncc4)c3C3CC3)cc2)cc1F [Compound 7-185]
IC50: 1000 to 3000 nM

CCn1nc(C)c(-c2ccc(-n3nnc(C(=O)NCc4ccc(C)nc4)c3C3CC3)cc2)c1C [Compound 9-10]
IC50: 100 to 500 nM
